Measured values as given in patent publication US20260028326A1, “COMPOUND BASED ON ISOINDOLINE-SUBSTITUTED GLUTARIMIDE BACKBONE AND USE THEREOF” (GLUETACS THERAPEUTICS (SHANGHAI) CO., LTD., priority 2022, published 2026).

Biological target: human Cereblon WT GST-tagged protein (Homo sapiens (Human), UniProt Q96SW2)
Assay: CRBN-binding affinity, HTRF (CEREBLON BINDING kit)
Summary of the method: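 HTRF competition readout: compounds compete with a thalidomide-Re conjugate for GST-tagged wild-type human CRBN detected via Eu-labelled anti-GST antibody. Inhibition rate derived relative to protein-free blank wells.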

Sequence of human Cereblon WT GST-tagged protein (Q96SW2 whole entry): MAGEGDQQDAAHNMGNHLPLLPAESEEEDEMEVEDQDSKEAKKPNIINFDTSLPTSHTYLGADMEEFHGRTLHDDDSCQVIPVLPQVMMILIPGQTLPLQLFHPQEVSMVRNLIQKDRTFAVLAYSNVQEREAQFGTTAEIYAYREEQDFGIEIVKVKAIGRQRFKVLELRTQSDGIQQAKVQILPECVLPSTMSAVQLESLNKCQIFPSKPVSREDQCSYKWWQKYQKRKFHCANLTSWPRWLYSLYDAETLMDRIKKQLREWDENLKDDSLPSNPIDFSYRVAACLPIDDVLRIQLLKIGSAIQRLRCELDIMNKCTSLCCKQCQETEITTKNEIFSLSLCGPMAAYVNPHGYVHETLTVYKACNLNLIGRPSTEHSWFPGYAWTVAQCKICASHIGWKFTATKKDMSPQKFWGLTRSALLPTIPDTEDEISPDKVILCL

| SMILES | IC50 |
| --- | --- |
| CC1(C)CCC(CN2CC3(C2)CN(C(=O)c2ccc4c(c2)CN(C2CCC(=O)NC2=O)C4=O)C3)=C(c2ccc(F)cc2)C1 (centres unmarked) [GT-05508, 3-(5-(6-((4′-fluoro-5,5-dimethyl-3,4,5,6-tetrahydro-[1,1′-biphenyl]-2-yl)methyl)-2,6-diazaspiro[3.3]heptane-2-carbonyl)-1-oxoisoindolin-2-yl)piperidine-2,6-dione] | 720 nM |
| O=C1CCC(N2Cc3ccc(CN4CCN(Cc5ccccc5-c5ccc(F)cc5)CC4)cc3C2=O)C(=O)N1 (centres unmarked) [GT-05606, 3-(6-((4-((4′-fluoro-[1,1′-biphenyl]-2-yl)methyl)piperazin-1-yl)methyl)-1-oxoisoindolin-2-yl)piperidine-2,6-dione] | 1180 nM |
| CC1(C)CCC(CN2C3CCC2CN(C(=O)c2ccc4c(c2)CN(C2CCC(=O)NC2=O)C4=O)C3)=C(c2ccc(F)cc2)C1 (centres unmarked) [GT-05511, 3-(5-(8-((4′-fluoro-5,5-dimethyl-3,4,5,6-tetrahydro-[1,1′-biphenyl]-2-yl)methyl)-3,8-diazabicyclo[3.2.1]octane-3-carbonyl)-1-oxoisoindolin-2-yl)piperidine-2,6-dione] | 1950 nM |
| O=C1CCC(N2C(=O)c3ccc(N4CC5CC(C4)N5Cc4ccccc4-c4ccc(Cl)cc4)cc3C2=O)C(=O)N1 (centres unmarked) [GT-05373, 5-(6-((4′-chloro-[1,1′-biphenyl]-2-yl)methyl)-3,6-diazabicyclo[3.1.1]heptan-3-yl)-2-(2,6-dioxopiperidin-3-yl)isoindoline-1,3-dione] | 1490 nM |
| O=C1CCC(N2Cc3cc(NC4CCN(Cc5ccccc5-c5ccc(Cl)cc5)CC4)ccc3C2=O)C(=O)N1 (centres unmarked) [GT-03877, 3-(5-((1-((4′-chloro-[1,1′-biphenyl]-2-yl)methyl)piperidin-4-yl)amino)-1-oxoisoindolin-2-yl)piperidine-2,6-dione] | 1400 nM |
| CC1(C)CCC(C(=O)N2CCC(Cc3ccc4c(c3)CN(C3CCC(=O)NC3=O)C4=O)CC2)=C(c2ccc(Cl)cc2)C1 (centres unmarked) [GT-05418, 3-(5-((1-(4′-chloro-5,5-dimethyl-3,4,5,6-tetrahydro-[1,1′-biphenyl]-2-carbonyl)piperidin-4-yl)methyl)-1-oxoisoindolin-2-yl)piperidine-2,6-dione] | 540 nM |
| O=C1CCC(N2Cc3ccc(CN4C5CC4CN(C(=O)C4=C(c6ccc(F)cc6)CCCC4)C5)cc3C2=O)C(=O)N1 (centres unmarked) [GT-05479, 3-(6-((3-(4′-fluoro-3,4,5,6-tetrahydro-[1,1′-biphenyl]-2-carbonyl)-3,6-diazabicyclo[3.1.1]heptan-6-yl)methyl)-1-oxoisoindolin-2-yl)piperidine-2,6-dione] | 720 nM |
| CC1(C)CCC(C(=O)N2CC3CC(C2)N3C(=O)c2ccc3c(c2)CN(C2CCC(=O)NC2=O)C3=O)=C(c2ccc(Cl)cc2)C1 (centres unmarked) [GT-05538, 3-(5-(3-(4′-chloro-5,5-dimethyl-3,4,5,6-tetrahydro-[1,1′-biphenyl]-2-carbonyl)-3,6-diazabicyclo[3.1.1]heptane-6-carbonyl)-1-oxoisoindolin-2-yl)piperidine-2,6-dione] | 1020 nM |
| O=C1CCC(N2Cc3cc(CN4CC5CC(C4)N5C(=O)c4ccccc4-c4ccc(Cl)cc4)ccc3C2=O)C(=O)N1 (centres unmarked) [GT-05669, 3-(5-((6-(4′-chloro-[1,1′-biphenyl]-2-carbonyl)-3,6-diazabicyclo[3.1.1]heptan-3-yl)methyl)-1-oxoisoindolin-2-yl)piperidine-2,6-dione] | 630 nM |
| CC1(C)CCC(CN2CCC3(CC2)CN(C(=O)c2ccc4c(c2)CN(C2CCC(=O)NC2=O)C4=O)C3)=C(c2ccc(F)cc2)C1 (centres unmarked) [GT-05507, 3-(5-(7-((4′-fluoro-5,5-dimethyl-3,4,5,6-tetrahydro-[1,1′-biphenyl]-2-yl)methyl)-2,7-diazaspiro[3.5]nonane-2-carbonyl)-1-oxoisoindolin-2-yl)piperidine-2,6-dione] | 1240 nM |
| CC1(C)CCC(CN2CCCN(C(=O)c3ccc4c(c3)CN(C3CCC(=O)NC3=O)C4=O)CC2)=C(c2ccc(Cl)cc2)C1 (centres unmarked) [GT-05453, 3-(5-(4-((4′-chloro-5,5-dimethyl-3,4,5,6-tetrahydro-[1,1′-biphenyl]-2-yl)methyl)-1,4-diazepane-1-carbonyl)-1-oxoisoindolin-2-yl)piperidine-2,6-dione] | 1240 nM |
